# From patent US8653087B2, “Pyrido [5, 4-D] pyrimidines as cell proliferation inhibitors” (Boehringer Ingelheim International GmbH, priority 2008, dated 2014)
# Target: B-Raf (V600E)-kinase (Homo sapiens (Human), UniProt P15056, V600E)
# Test: Kinase test B-RAF (V600E)
# Format: biochemical
# Settings: not given
# Procedure, shortened: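 B-Raf (V600E) (0.5 ng) preincubated with compound 24 h at RT (5% DMSO), then reacted 60 min at RT with 250 μM ATP and biotinylated MEK1 as substrate. Phospho-MEK (Ser217/221) captured on streptavidin and detected by europium time-resolved fluorescence; IC50 from dose-response curves.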
# Sequence of B-Raf (V600E)-kinase (P15056 whole entry V600E): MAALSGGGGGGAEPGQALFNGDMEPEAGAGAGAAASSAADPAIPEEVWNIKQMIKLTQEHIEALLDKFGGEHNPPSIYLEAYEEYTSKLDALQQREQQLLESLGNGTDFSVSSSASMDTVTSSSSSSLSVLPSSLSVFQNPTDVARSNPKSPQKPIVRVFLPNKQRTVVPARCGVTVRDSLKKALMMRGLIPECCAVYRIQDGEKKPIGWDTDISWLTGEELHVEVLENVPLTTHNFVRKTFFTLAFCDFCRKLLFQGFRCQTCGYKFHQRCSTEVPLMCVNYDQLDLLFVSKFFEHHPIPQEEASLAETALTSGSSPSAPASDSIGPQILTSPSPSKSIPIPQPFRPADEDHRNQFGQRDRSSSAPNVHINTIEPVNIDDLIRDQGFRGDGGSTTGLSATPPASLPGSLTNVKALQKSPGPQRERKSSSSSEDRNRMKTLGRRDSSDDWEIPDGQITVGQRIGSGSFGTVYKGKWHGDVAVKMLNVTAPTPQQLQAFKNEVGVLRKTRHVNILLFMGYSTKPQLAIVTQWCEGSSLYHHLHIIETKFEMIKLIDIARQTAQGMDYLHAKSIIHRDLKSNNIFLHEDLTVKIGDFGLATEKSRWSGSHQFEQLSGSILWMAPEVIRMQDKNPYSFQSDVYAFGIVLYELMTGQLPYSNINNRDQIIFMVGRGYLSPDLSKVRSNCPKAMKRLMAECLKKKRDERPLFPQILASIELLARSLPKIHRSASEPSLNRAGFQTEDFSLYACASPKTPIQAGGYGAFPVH
row,Structure (SMILES),IC50 [nM]
1,Cc1ccc(C(=O)Nc2ccc(C#N)c(C(F)(F)F)c2)cc1Nc1ncnc2cnc(N3CCN(C)CC3)nc12 [III-311],2

# Same assay, conditions: B-RAF (V600E) kinase test, 250 μM ATP
row,Structure (SMILES),IC50 [nM]
1,Cc1ccc(C(=O)Nc2cc(C(C)(C)C)n[nH]2)cc1Nc1ncnc2cnc(N3CCN(CC(C)C)CC3)nc12 [III-447],13
2,COc1ccc(C(=O)Nc2cc(C(C)(C)C)on2)cc1Nc1ncnc2cnc(N(C)CCN3CCCC3)nc12 [III-97],4
3,COc1c(CN2CCCC2)cc(C(F)(F)F)cc1NC(=O)c1ccc(C)c(Nc2ncnc3cnc(N4CC[C@H](F)C4)nc23)c1 [III-541],15
4,COc1c(NC(=O)c2ccc(C)c(Nc3ncnc4cnc(N5CCCC5)nc34)c2)cc(C(C)(C)C)cc1NS(C)(=O)=O [III-277],23
5,Cc1ccc(C(=O)NCc2cccc(C(C)(C)C)c2)cc1Nc1ncnc2cnc(N3CCCC3)nc12 [III-278],88
6,COCCN1CCN(c2ncc3ncnc(Nc4cc(C(=O)Nc5cc(C(F)(F)F)ccc5Cl)ccc4C)c3n2)CC1 [III-533],6
7,CC(C)(C)c1cc(NC(=O)c2ccc(F)c(Nc3ncnc4cnc(N5CCN(CC6CC6)CC5)nc34)c2)no1 [III-397],4
8,COc1ccc(NC(=O)c2ccc(Cl)c(Nc3ncnc4cnc(N5CCCCC5)nc34)c2)cc1C(F)(F)F [III-10],6
9,COc1ccc(NC(=O)c2ccc(C)c(Nc3ncnc4cnc(N5CCC(N6CCCC6)CC5)nc34)c2)cc1C(F)(F)F [III-560],7
10,CCC(C)S(=O)(=O)Nc1ccc(C)c(Nc2ncnc3cnc(N4CCN(C)CC4)nc23)c1 (centres unmarked) [IV-56],10000
11,COc1ccc(NC(=O)c2ccc(Cl)c(Nc3ncnc4cnc(NCCN5CCOCC5)nc34)c2)cc1C(F)(F)F [III-15],5
12,COc1ccc(NC(=O)c2ccc(C)c(Nc3ncnc4c(N)nc(N5CCN(C)CC5)nc34)c2)cc1C(F)(F)F [I-1],26
13,CC(C)(C#N)c1cccc(NC(=O)c2ccc(F)c(Nc3ncnc4cnc(N5CCOCC5)nc34)c2)c1 [III-383],4
14,COCCN1CCN(c2ncc3ncnc(Nc4cc(C(=O)Nc5cc(-n6cnc(C)c6)cc(C(F)(F)F)c5)ccc4C)c3n2)CC1 [III-502],8
15,CN(C)CCNc1ncc2ncnc(Nc3cc(C(=O)Nc4cc(C(C)(C)C)on4)ccc3C(F)(F)F)c2n1 [III-65],4170
16,Cc1ccc(C(=O)Nc2cccc(C(F)(F)F)c2)cc1Nc1ncnc2cnc(N3CCCCC3)nc12 [III-330],6
17,Cc1ccc(NC(=O)c2cc(C(C)(C)C)on2)cc1Nc1ncnc2cnc(N3CCN(C)CC3)nc12 [IV-5],129
18,Cc1ccc(C(=O)NCC2CCOC2)cc1Nc1ncnc2cnc(N3CCCCC3)nc12 (centres unmarked) [III-212],> 15000

row,Structure (SMILES),IC50 [nM]
1,COc1ncc2ncnc(Nc3cc(NC(=O)c4ccc(OC)c(C(F)(F)F)c4)ccc3C)c2n1 [IV-42],13
2,COCCN1CCN(c2ncc3ncnc(N(C)c4cc(C(=O)Nc5cc(C(C)(C)C)on5)ccc4C)c3n2)CC1 [III-582],74
3,COc1ccc(NC(=O)c2ccc(C(F)(F)F)c(Nc3ncnc4cnc(N5CCN(C)CC5)nc34)c2)cc1C(F)(F)F [III-47],95
4,Cc1ccc(C(=O)Nc2ccc(F)c(C(F)(F)F)c2)cc1Nc1ncnc2cnc(N3CCOCC3)nc12 [III-314],9
5,Cc1ccc(C(=O)Nc2cc(N3CCN(C)CC3)c(F)c(C(F)(F)F)c2)cc1Nc1ncnc2cnc(N3CC[C@H](F)C3)nc12 [III-511],4
6,Cc1ccc(C(=O)NCc2ccc(C(F)(F)F)cc2)cc1Nc1ncnc2cnc(N3CC[C@@H](F)C3)nc12 [III-242],19
7,COc1ccc(NC(=O)c2ccc(F)c(Nc3ncnc4cnc(N5CCN(CC6CC6)CC5)nc34)c2)cc1C(F)(F)F [III-404],6
8,CC(C)(C)c1cc(NC(=O)c2ccc(C(F)(F)F)c(Nc3ncnc4cnc(NCCCN5CCOCC5)nc34)c2)no1 [III-62],546
9,Cc1ccc(C(=O)Nc2cccc(S(=O)(=O)N(C)C)c2)cc1Nc1ncnc2cnc(N3CCCN(C)CC3)nc12 [III-251],19
10,Cc1ccc(C(=O)Nc2cc(C(C)(C)C)on2)cc1Nc1ncnc2cnc(N3CC[C@H](F)C3)nc12 [III-412],5
11,Cc1ccc(C(=O)NC2CCCCC2)cc1Nc1ncnc2cnc(N3CCCC3)nc12 [III-258],15000
12,Cc1ccc(C(=O)Nc2cccc(N(C)C)c2)cc1Nc1ncnc2cnc(N3CCCC3)nc12 [III-271],10
13,Cc1ccc(NC(=O)c2cccc(C(F)(F)F)c2)cc1Nc1ncnc2c(N)nc(N3CC(C)NC(C)C3)nc12 (centres unmarked) [II-15],40
14,Cc1ccc(C(=O)Nc2cc(OCCN3CCOCC3)cc(C(F)(F)F)c2)cc1Nc1ncnc2cnc(N3CCOCC3)nc12 [III-529],3
15,Cc1ccc(NC(=O)c2cc(C(C)(C)C)n[nH]2)cc1Nc1ncnc2cnc(N3CCN(C)CC3)nc12 [IV-4],44
16,Cc1ccc(C(=O)Nc2cc(C(C)(C)C)n[nH]2)cc1Nc1ncnc2c(N)nc(N3CCN(CC4CCCN(C)C4)CC3)nc12 (centres unmarked) [I-40],3
17,Cc1ccc(NC(=O)c2cc(N3CCN(C)CC3)cc(C(F)(F)F)c2)cc1Nc1ncnc2cnc(N(C)CCCN(C)C)nc12 [IV-23],4

# Next, values leading:
row,IC50 [nM],Structure (SMILES)
1,1,Cc1ccc(C(=O)Nc2cccc(C(F)(F)F)c2)cc1Nc1ncnc2cnc(N3CCCC3)nc12 [III-266]
2,1,Cc1ccc(C(=O)Nc2cccc(C(F)(F)F)c2)cc1Nc1ncnc2c(N)nc(N3CCCN(c4ncccn4)CC3)nc12 [I-63]
3,3,Cc1ccc(C(=O)Nc2cc(N3CCN(C(C)C)CC3)cc(C(F)(F)F)c2)cc1Nc1ncnc2cnc(N3CC[C@H](F)C3)nc12 [III-456]
4,< 1,Cc1ccc(C(=O)Nc2cc(OCCN(C)C)cc(C(F)(F)F)c2)cc1Nc1ncnc2cnc(NCC3CCOC3)nc12 (centres unmarked) [III-146]
5,< 1,Cc1ccc(C(=O)Nc2cc(CN3CCCC3)cc(C(F)(F)F)c2)cc1Nc1ncnc2cnc(N3CCOCC3)nc12 [III-108]
6,2,COCCN(C)c1ncc2ncnc(Nc3cc(C(=O)Nc4cc(CN5CCCC5)cc(C(F)(F)F)c4)ccc3C)c2n1 [III-98]
7,2,Cc1ccc(C(=O)Nc2cccc(C(C)(C)C)c2)cc1Nc1ncnc2c(N)nc(N3CCN(C)CC3)nc12 [I-80]
8,2,COc1ccc(NC(=O)c2ccc(C)c(Nc3ncnc4cnc(N5C[C@@H](C)N[C@@H](C)C5)nc34)c2)cc1C(F)(F)F [III-436]
9,2,CCN1CCN(c2ncc3ncnc(Nc4cc(C(=O)Nc5cc(C(C)(C)C)on5)ccc4C)c3n2)CC1 [III-491]
10,< 1,COc1ccc(NC(=O)c2ccc(C)c(Nc3ncnc4cnc(NCC(C)C)nc34)c2)cc1C(F)(F)F [III-547]
11,< 1,Cc1ccc(C(=O)Nc2cccc(OC(F)(F)F)c2)cc1Nc1ncnc2cnc(N3CCN(C)CC3)nc12 [III-301]
12,2,Cc1ccc(C(=O)Nc2cc(C(C)(C)C)n[nH]2)cc1Nc1ncnc2c(N)nc(N3C[C@@H]4C[C@H]3CN4)nc12 [I-69]
13,2,COc1ccc(NC(=O)c2ccc(Cl)c(Nc3ncnc4cnc(N(C)C)nc34)c2)cc1C(F)(F)F [III-16]
14,1,Cc1ccc(C(=O)Nc2cc(OCCN(C)C)cc(C(F)(F)F)c2)cc1Nc1ncnc2cnc(NCc3ccccc3)nc12 [III-147]
15,3,Cc1ccc(C(=O)Nc2cc(N(C)CCN(C)C)cc(C(F)(F)F)c2)cc1Nc1ncnc2c(N)nc(N3CCCOCC3)nc12 [I-70]
16,< 1,Cc1ccc(C(=O)Nc2cccc(C(F)(F)F)c2)cc1Nc1ncnc2c(N)nc(N3CCCN(c4ccncc4)CC3)nc12 [I-60]
17,2,Cc1ccc(C(=O)Nc2cc(C(F)(F)F)ccn2)cc1Nc1ncnc2c(N)nc(N3CCN(C)CC3)nc12 [I-73]
18,1,Cc1ccc(NC(=O)c2cccc(C(C)(C)C#N)c2)cc1Nc1ncnc2cnc(N(C)C3CCOC3)nc12 (centres unmarked) [IV-37]

row,IC50 [nM],Structure (SMILES)
1,2,COCCN(C)c1ncc2ncnc(Nc3cc(C(=O)Nc4cccc(C(F)(F)F)c4)ccc3C)c2n1 [III-467]
2,< 1,Cc1ccc(C(=O)Nc2cc(C(C)(C)C)on2)cc1Nc1ncnc2cnc(N3CCC[C@H]3CO)nc12 [III-363]
3,1,COCCN(C)c1ncc2ncnc(Nc3cc(C(=O)Nc4cc(C(C)(C)C)on4)ccc3C)c2n1 [III-474]
4,< 1,Cc1ccc(C(=O)Nc2cc(C(F)(F)F)ccn2)cc1Nc1ncnc2cnc(N3CCN(C)CC3)nc12 [III-261]
5,1,Cc1ccc(C(=O)Nc2cc(C(C)(C)C)on2)cc1Nc1ncnc2cnc(N3CCN(CCCN4CCCC4)CC3)nc12 [III-481]
6,1,Cc1ccc(NC(=O)c2cccc(C(C)(C)C#N)c2)cc1Nc1ncnc2cnc(NC3CCN(C)CC3)nc12 [IV-28]
7,< 1,Cc1ccc(C(=O)Nc2cccc(C(C)(C)C)c2)cc1Nc1ncnc2cnc(NC3CCOC3)nc12 (centres unmarked) [III-350]
8,1,Cc1ccc(C(=O)Nc2cc(CN3CCCC3)cc(C(F)(F)F)c2)cc1Nc1ncnc2cnc(NCC3CCOC3)nc12 (centres unmarked) [III-104]
9,< 1,Cc1ccc(C(=O)Nc2cccc(C(C)(C)C)c2)cc1Nc1ncnc2cnc(NCc3ccccc3)nc12 [III-428]
10,3,Cc1ccc(C(=O)Nc2ccc(C(F)(F)F)cc2)cc1Nc1ncnc2c(N)nc(N3CCN(C4CCN(C)CC4)CC3)nc12 [I-7]
11,< 1,COc1ccc(NC(=O)c2ccc(C)c(Nc3ncnc4cnc(NC5CCOC5)nc34)c2)cc1C(F)(F)F (centres unmarked) [III-356]
12,< 1,COc1ccc(NC(=O)c2ccc(F)c(Nc3ncnc4cnc(N(C)CCN(C)C)nc34)c2)cc1C(F)(F)F [III-31]
13,2,CN(C)CCNc1ncc2ncnc(Nc3cc(C(=O)Nc4cc(C(C)(C)C)on4)ccc3Cl)c2n1 [III-77]
14,1,Cc1ccc(NC(=O)c2cccc(C(C)(C)C#N)c2)cc1Nc1ncnc2cnc(NC3CCOC3)nc12 (centres unmarked) [IV-32]
15,2,COc1ccc(NC(=O)c2ccc(C)c(Nc3ncnc4cnc(N5CCCC5)nc34)c2)cc1C(F)(F)F [III-445]
16,1,Cc1ccc(C(=O)Nc2cc(C(C)(C)C)on2)cc1Nc1ncnc2cnc(N(C)C3CCOC3)nc12 (centres unmarked) [III-365]
17,1,COc1ccc(NC(=O)c2ccc(C)c(Nc3ncnc4c(N)nc(N5CCN(CC6CCN(C)CC6)CC5)nc34)c2)cc1C(F)(F)F [I-16]
